Assay results as given in patent publication US9187413B2, “Peripherally restricted FAAH inhibitors” (The Regents of the University of California, priority 2010, dated 2015).
Where two headings read alike, the source gives them in different places.

Legend:
[1] = system: carrageenan-induced inflammation; test: Carrageenan-induced hyperalgesia, allodynia and paw edema; assay type: in vivo, mice; details: Swiss mice, 1 mg-kg^-1, i.p., carrageenan
Experimental: Behavioral tests. We measured nocifensive responses elicited by i.p. injection of acetic acid in male Swiss and C57B1/6 (wild-type or FAAH-deficient) mice^40, intraplantar injection of carrageenan in male Swiss mice^20, intraplantar injection of formalin in male Sprague-Dawley rats^41, and sciatic nerve ligation in male Swiss mice^39.
Behavioral tests Acetic acid-induced writhing was measured in Swiss mice or C57B1/6 mice (wild-type and FAAH-deficient), as described^40 with minor modifications. Briefly, the mice were acclimated to the experimental room for 2 h. Each animal was injected with acetic acid (150 μL, 0.6% in saline) and placed into a glass cylinder. Abdominal stretches (extension of body and hind limbs) were counted for 20 min, starting 5 min after acetic acid injection. […] Behavior was scored by an observer blinded to the treatment conditions. Formalin-induced nociception was assessed in Sprague-Dawley rats, as described^41. The rats were singly housed and kept in a shared holding room under a 12:12 h light:dark cycle. They were given free access to food and water, and allowed to acclimate to the facility for a week before testing. […] They were acclimated to the observation container (clear plexiglas box, 29×29×25 cm) for 15 min before receiving an injection of formalin (50 μL, 5% in saline) into the dorsal surface of the right hind paw. Immediately after formalin injection, the rats were returned to the observation container and nocifensive behavior was recorded for 60 min with a video camera. Recordings were analyzed by observers blinded to treatment conditions. Nocifensive behavior was measured continuously for 60 min^41. […] Each 5-min bin was analyzed for time spent (1) lifting and (2) licking or biting the injected paw. Nocifensive behavior was analyzed using the composite pain score weighted scores technique (CPS-WST1,2) calculated for the entire time of observation (0-60 min) and, separately, for the first (0-10 min) and second phase (10-60 min) of the behavioral response^46. The area under the curve (AUC) corresponding to CPS-WST1,2 was calculated using the trapezoidal rule. Paw edema was induced in mice by injection into the right hind paws of 50 μL of sterile saline containing 1% λ-carrageenan. Paw volumes were measured using a plethysmometer (Ugo Basile, Milan, Italy). […] Rimonabant and AM630 (1 mg kg^−1, i.p.) were injected 30 min before carrageenan. Mechanical hyperalgesia was assessed by measuring the latency(s) to withdraw the paw from a constant mechanical pressure exerted onto its dorsal surface. A 15-g calibrated glass cylindrical rod (diameter=10 mm) chamfered to a conical point (diameter=3 mm) was used to exert the mechanical force. The weight was suspended vertically between two rings attached to a stand and was free to move vertically. A cutoff time of 3 min was used. Thermal hyperalgesia was assessed as described^47, measuring the latency to withdraw the hind paw from a focused beam of radiant heat (thermal intensity: infrared 3.0) applied to the plantar surface, using a commercial apparatus (Ugo Basile, Varese, Italy). The cutoff time was set at 30 s. Mechanical allodynia was assessed by applying a graded force to the plantar hind paw surface with a Von Frey filament, using a Dynamic Plantar Anesthesiometer (Ugo Basile). The cutoff force was set at 50 g.

FAAH = FAAH (Mus musculus (Mouse), UniProt O08914); test: FAAH inhibition ex vivo after systemic administration in mice; details: for inhibition at 1 mg/kg: mouse, ip, ex vivo 1 h after a single injection in mice (1 mg-kg^-1, i.p.); for ability to access the brain after systemic administration: mice, 1 mg-kg^-1, i.p.
Sequence of FAAH (O08914 whole entry): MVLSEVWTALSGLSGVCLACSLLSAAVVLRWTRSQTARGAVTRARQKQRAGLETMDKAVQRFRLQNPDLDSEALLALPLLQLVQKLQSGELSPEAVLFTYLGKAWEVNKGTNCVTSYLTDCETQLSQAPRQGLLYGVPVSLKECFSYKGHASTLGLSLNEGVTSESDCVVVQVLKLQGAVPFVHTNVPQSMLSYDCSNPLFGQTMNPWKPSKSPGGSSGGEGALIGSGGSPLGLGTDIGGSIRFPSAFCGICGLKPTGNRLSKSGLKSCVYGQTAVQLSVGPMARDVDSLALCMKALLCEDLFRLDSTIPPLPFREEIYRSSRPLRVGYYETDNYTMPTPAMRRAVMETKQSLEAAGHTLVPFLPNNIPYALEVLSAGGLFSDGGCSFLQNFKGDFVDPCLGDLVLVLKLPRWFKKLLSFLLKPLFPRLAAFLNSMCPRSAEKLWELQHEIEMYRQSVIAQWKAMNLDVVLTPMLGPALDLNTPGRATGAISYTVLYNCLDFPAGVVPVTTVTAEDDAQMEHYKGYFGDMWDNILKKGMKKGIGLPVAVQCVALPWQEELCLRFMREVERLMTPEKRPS
Experimental: Drug preparation for in vivo experiments Drugs were dissolved in polyethylene glycol 400/Tween-80/saline (1/1/18; by volume) and administered by i.p. (5-10 mL-kg^−1) or s.c. injection (10 mL-kg^−1).

rat brain FAAH = rat brain FAAH (Rattus norvegicus (Rat), UniProt P97612); details: membrane preparation of rat brain
Sequence of rat brain FAAH (P97612 whole entry): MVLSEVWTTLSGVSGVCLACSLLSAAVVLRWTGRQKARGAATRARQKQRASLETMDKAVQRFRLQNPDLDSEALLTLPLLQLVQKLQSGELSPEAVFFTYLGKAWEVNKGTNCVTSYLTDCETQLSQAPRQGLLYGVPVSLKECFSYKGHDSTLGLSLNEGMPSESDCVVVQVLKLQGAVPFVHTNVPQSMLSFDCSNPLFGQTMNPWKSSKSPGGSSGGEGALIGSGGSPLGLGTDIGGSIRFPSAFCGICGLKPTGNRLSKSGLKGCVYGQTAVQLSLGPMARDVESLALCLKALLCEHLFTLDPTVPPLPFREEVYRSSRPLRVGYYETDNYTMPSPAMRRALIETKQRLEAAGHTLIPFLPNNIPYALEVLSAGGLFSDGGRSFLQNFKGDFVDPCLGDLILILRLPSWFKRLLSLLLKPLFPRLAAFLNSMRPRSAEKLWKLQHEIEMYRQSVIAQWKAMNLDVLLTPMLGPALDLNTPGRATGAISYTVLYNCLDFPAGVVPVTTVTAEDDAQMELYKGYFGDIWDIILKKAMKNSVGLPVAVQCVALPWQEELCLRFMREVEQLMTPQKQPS
From the text: Enzyme assays. We conducted standard FAAH and monoacylglycerol lipase assays as described^15,37, using as substrates [^3H]-anandamide (a gift of the National Institute on Drug Abuse) and 2-oleoyl-sn-glycerol (Nu-Check Prep, Elysian, Minn.), respectively.

Fos protein = test: Formalin-induced Fos expression in lumbar spinal cord; assay type: in vivo; details: rats, 2 mg-kg^-1, i.p., administered without URB937
Experimental: Fos expression. We measured Fos protein levels by quantitative immunocytochemistry^5 on slices of lumbar (L4/L5) spinal cord from male Sprague-Dawley rats.
Fos immunohistochemistry Two hours after formalin injection into the dorsal paw, rats received a lethal dose of Nembutal (50 mg-mL^−1). They were perfused through the heart with 100 mL of 1% heparinized phosphate buffered saline (PBS) followed by 300 mL of ice-cold 4% paraformaldehyde. The lumbar-sacral region of the spinal cord was collected from each rat. Spinal cords were post fixed in 4% paraformaldehyde at 4° C. for 24 h and then cryoprotected in 30% sucrose at 4° C. for 24-48 hours. Spinal cords were cryostat-cut into 40 μm transverse sections at the level of the lumbar enlargement (L4/L5). Free floating alternating sections were kept in a series of wells filled with PBS. Every fourth section was processed for Fos immunoreactivity to ensure that the same cell would not be counted twice. Endogenous peroxidases were inactivated by incubation in hydrogen peroxide. […]
Selection of sections and quantification of the number of Fos-positive cells was performed by an observer blinded to experimental conditions. […] Using Image J, Fos expressing cells were counted in each subdivision, regardless of staining intensity, by an observer blinded to experimental treatments.

[2] = brain, read-out: FAAH Inhibition in brain (%)
[3] = liver, read-out: FAAH Inhibition in liver (%)

SMILES: COc1ccc(C(=O)c2c(C)n(CCN3CCOCC3)c3cc(I)ccc23)cc1 [AM630, reference compound]
- hyperalgesia and allodynia in contralateral (non-injected) paws [1]: had no effect

SMILES: NC(=O)c1cccc(-c2cccc(OC(=O)NC3CCCCC3)c2)c1 [Compound 1a, cyclohexylcarbamic acid 3′-carbamoylbiphenyl-3-yl ester, reference compound]
- inhibition at 1 mg/kg (FAAH; [2]): 96.2 ± 0.4%

SMILES: COc1ccc(OC(=O)NC2CCCCC2)cc1-c1cccc(C(N)=O)c1 [Compound 1c]
- ability to access the brain after systemic administration (FAAH): readily entered the brain

SMILES: Cc1ccc(OC(=O)NC2CCCCC2)cc1-c1cccc(C(N)=O)c1 [Compound 1d]
- IC50 (rat brain FAAH): 20.5 ± 0.6 nM
- ability to access the brain after systemic administration (FAAH): readily entered the brain
- inhibition at 1 mg/kg (FAAH; [2]): 91.9 ± 1.5%
- inhibition at 1 mg/kg (FAAH; [3]): 93 ± 1.1%

SMILES: NC(=O)c1cccc(-c2cc(OC(=O)NC3CCCCC3)ccc2F)c1 [Compound 1e]
- IC50 (rat brain FAAH): 49.7 ± 5.8 nM
- ability to access the brain after systemic administration (FAAH): readily entered the brain
- inhibition at 1 mg/kg (FAAH; [2]): 89.7 ± 1.3%
- inhibition at 1 mg/kg (FAAH; [3]): 90.7 ± 1.2%

SMILES: NC(=O)c1cccc(-c2cc(OC(=O)NC3CCCCC3)ccc2N)c1 [Compound 1f]
- IC50 (rat brain FAAH): 42.5 ± 4.2 nM
- ability to access the brain after systemic administration (FAAH): largely excluded
- inhibition at 1 mg/kg (FAAH; [2]): 23.2 ± 2.1%
- inhibition at 1 mg/kg (FAAH; [3]): 92.2 ± 0.6%

SMILES: Cc1c(C(=O)NN2CCCCC2)nn(-c2ccc(Cl)cc2Cl)c1-c1ccc(Cl)cc1 [rimonabant, reference compound]
- hyperalgesia and allodynia in contralateral (non-injected) paws [1]: had no effect
- formalin-induced Fos levels, antagonist without URB937 (Fos protein): did not significantly alter Fos levels
